* marks the point of attachment. BODIPYFLEthylmaleimide = Cc1cc(C)n2c1C=C1C=CC(CCC(=O)NCCN3C(=O)CC(*)C3=O)=[N+]1[B-]2(F)F
Experiments:
70Z/3-C3 cells = test: FACS analysis of cellular uptake of BODIPY-labelled peptides; conditions: 0.2, 2 or 20 μM, 5 h, 37° C.
Description: (A) Cellular delivery of NEMO peptides mediated by conjugation with the Antennapedia peptide.
0.5×10^6 70Z/3-C3 cells in 0.5 ml were incubated at 37° C. for different times and with various concentrations of peptides as indicated in the Figure legends. The cell suspension was centrifugated at 1,000×g at room temperature and the cell pellet was then washed three times with PBS buffer (1 ml), and finally was resuspended with 500 μl of PBS buffer containing 0.1% sodium azide. Fluorescence analysis was performed with a FACSCalibur (BD Biosciences) and a minimum of 15,000 events per sample was selected. All experiments were performed in duplicates.

[1] = target: T1, CC2 peptide (minimal oligomerization domain of NEMO) (Mus musculus, UniProt O88522); test: Fluorescence anisotropy titration with CC2 peptide; type: binding, murine
T1 construct: made in house; host or cells: chemical solid-phase synthesis (Fmoc/tBu), no expression host
T1 sequence (O88522 253-287): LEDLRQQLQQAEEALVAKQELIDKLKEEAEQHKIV
Description: (A) Direct titration of BODIPY-Ant-CC2 (1 μM) with CC2 by fluorescence anitropy. The concentration of CC2 was determined by amino acid analysis. Anisotropy values of BODIPY-Ant-CC2 in milliunits (mA) were plotted against an increasing concentration of the CC2 peptide. […] The two dashed lines represent a stoichiometric titration and intersect at an CC2 concentration of […]. Given the 1 μM concentration of the BODIPY-Ant-CC2, this gives a complex stoechiometrie of 0.8. (B) Direct titration of BODIPY-Ant-LZ (0.1 μM) with CC2 by fluorescence anitropy. […]
Anisotropy measurements were performed with a PTI QUANTAMASTER™ fluorometer equipped with polarizers for the excitation and emission beams. […] Steady-state fluorescence anisotropy was expressed as millianisotropy (mA) and was calculated according to the equations: (1) A=(IVV−GIVH)/(IVV+2GIVH); (2) G=IHV/IHH.; where A is anisotropy, G is a correction factor for wavelength-dependent distortion and I is the fluorescence intensity component (subscript referring to the vertical and horizontal positioning at the excitation and emission polarizers, respectively). […] The dissociation constant parameter was estimated by globally fitting the anisotropy data to binding isotherm equation as described in Agou et al. (J Biol Chem. 2004 Jul. 2; 279(27):27861-9) using KALEIDAGRAPH™ nonlinear regression software (Synergy Software, reading PA). […]

[2] = system: LPS-induced NF-κB activation; test: More stringent NF-κB inhibition assay, second procedure: peptide internalization, washing, 24 h growth, then LPS; type: cell-based, murine; conditions: 10 μM peptide, LPS 5 h after 24 h growth
Text: Left panels show a helical wheel diagram of CC2 (A) and LZ (B) peptides. The view is from the top the molecule. The (a) through (g) positions, which are an essential feature of coiled coil sequence (Vinson, 2002, Mol. Cell. Biol.) represent sequential positions in each peptide sequence. The first (a) and fourth (d) positions that are generally occupied by hydrophobic amino acids constitute the hydrophobic core for parallel as well as antiparallel-coiled coils. Mutations that were introduced in (a) positions of the CC2 variant (BODIPY-Ant-CC2 (Mu); shown as residues 6-40 of SEQ ID NO:3, with glycine mutations corresponding to residues 6-40 of SEQ ID NO:5) or in (d) positions of the LZ variant (BODIPY-Ant-(Mu) are shown. In the right panels, 70Z3-C3 cells were incubated for 2 hours in the absence (control) or in the presence of 10 μM of cell permeable wild type (BODIPY-Ant-CC2 (WT)) or mutant (BODIPY-Ant-CC2 (Mu)) CC2 peptides (A) or wild type (BODIPY-Ant-LZ (WT)) or mutant (BODIPY-Ant-(Mu)) LZ peptides (B). The cells were then extensively washed to remove the excess peptide which had not been internalized and the cells were then diluted three times and allowed to grow for 24 hours before treatment for 5 hours with (+) or without LPS (−). NF-κB activity was measured using the β-galactosidase assay. Error bars represent the standard deviation of two independent experiments.
(A) Sequence alignment of the NEMO-derived LZ (residues 301-336 of SEQ ID NO: 12) and the GCN4 peptides (residues 23-55 of SEQ ID NO:8). Both coiled-coil motifs were aligned using clustalX. Identical and similar amino acid residues (shaded) are indicated by (!) or (*), respectively. (B) Overview and helical wheel diagram of the GCN4 coiled-coil (top view). The amino-acid sequence of GCN4 is shown with its corresponding [a-g] positions and residues that differ from the corresponding NEMO-derived LZ sequence are boxed according to their degree of conservation. Identical (open square) and similar residues (open triangle) are indicated. […] NF-κB activity was measured using the b-galactosidase assay. […]

[3] = system: LPS-induced NF-κB activation; test: NF-κB inhibition assay, first procedure: LPS-induced NF-κB dependent β-galactosidase reporter in 70Z/3-C3 cells; type: cell-based, murine
Description: The resulting cell line, 70Z3-C3, was incubated for 2 hours in the absence or in the presence of 20 μM of antennapedia peptide (Ant), or BODIPY-labeled antennapedia peptide (BODIPY-Ant), or BODIPY-labeled antennapedia peptide coupled to CC2 (BODIPY-Ant-CC2) or LZ (BODIPY-Ant-LZ) peptides, After peptide internalization, cells were treated for 5 hours with LPS (3 μg/ml, (+) in left panel) or untreated (right panel and (−) in left panel) and the NF-κB activity was measured by β-galactosidase assay. Error bars represent the standard deviation of three separate experiments. (B) Concentration dependence of inhibition of LPS-induced NF-κB activation by BODIPY-Ant-CC2 peptide (left panel) or BODIPY-Ant-LZ peptide (right panel). Cells were treated as in (A) but with different concentration of peptide as indicated. The potential of each peptide to inhibit LPS-induced NF-κB activation was measured by determining the IC50 value that correspond to 50% inhibition of LPS-induced NF-κB activation as compared to the control (no peptide) (C). (D) Effect of the N-fusion sequence of antennapedia on the inhibition of NF-κB activation. Control (no peptide) or CC2, or LZ peptides, with (BODIPY-ANT-CC2, BODIPY-ANT-LZ) or without the antennapedia sequence at the N-terminus (CC2, LZ) were incubated for 2 hours with 70Z3-C3 cells followed with (+) or without (−) the LPS-treatment for 3 hours. NF-κB activity was then measured by β-galactosidase assay.
In a first procedure 2.2×10^5 70Z/3-C3 cells in 220 μl of RPMI 1640 supplemented with 10% fetal calf serum (FCS) and 50 μM β-mercaptoethanol were placed in a 96-well plate and incubated with various concentrations of peptide (0 to 20 μM) at 37° C. in 5% CO2 incubator. After two hours an equal portion (100 μl) of each cell sample transferred in two wells containing each 10^5 cells. One aliquot of cells was then treated for 5 hours with lipopolysaccharides from Salmonella abortus (Sigma) at 0.5 μg/ml final concentration, and the other one left-treated. After 5 hours, cells were centrifuged at 400×g for 5 min at room temperature and the cell pellets were washed three times with cold PBS (250 μl) by centrifugation. Cells were then lysed in the lysis buffer (25 mM tris-phosphate buffer at pH 7.8 containing 8 mM magnesium chloride, 1 mM dithioerythreitol, 1% Triton X-100, 15% glycerol and a protease inhibitor mixture (Roche)), and samples were centrifuged at 4° C. for 20 min to clarify the lysate. The supernatant was then kept on ice, and 30 μl was then assayed to measure the β-galactosidase activity with a plate luminometer (Berthold) using the GALACTON-STAR™ as chemiluminescent substrate (BD Biosciences Clontech, Bronstein et al., 1989). Background of reaction was measured by mixing for 1 hour 30 μl of lysis buffer with the reaction buffer (196 μl) and the GALACTON-STAR™ substrate (4 μl) provided by BD Biosciences. In a second procedure and a more stringent assay, 70Z/3-C3 cells (2.2×105 in 220 μl medium) were centrifuged at 400×g at room temperature after peptide internalization for 2 hours, and cell pellets were washed three times with 200 μl of PBS by centrifugation. Cells were then diluted three times with complete medium, and allowed to grow for at least 24 hours. The following steps are identical to the first procedure.
To analyze the inhibition potential of LPS-induced NF-κB activation by cell permeable BODIPY-Ant-CC2 and BODIPY-Ant-LZ peptides, the present inventors stably transfected the murine pre-B 70Z3 cell line with p12XlacZ-kB, which bears the β-galactosidase reporter gene under the control of the NF-κB transcription factor.

[4] = Binding of NLM peptides, Hill coefficient calculation of cooperativity indices
Text: The present inventors compared NLM-DR to the corresponding NLM peptide by measuring the respective cooperativity indices, which evidence an advantage of NLM-DR mutated peptide over the wild-type.
The calculation of the “cooperativity indice” by means of Hill coefficient is based on the following formula Boundmax×L^n/(KD^n+L^n)
Wherein • Boundmax is the maximum concentration of the bound ligand, • L is the concentration of the free ligand, • n is the cooperativity indice and • KD, is the affinity constant of the ligand by the protein.

[5] = Circular dichroism studies of helix stability; type: physicochemical
Text: From circular dichroism studies (CD), it appears that CC2 and LZ peptides adopt a helicoidal structure, depending on their concentration. […] RMN and Rayon X Diffraction studies have confirmed the structure of CC2.

Substance	Dependency of intracellular concentration on incubated concentration (70Z/3-C3 cells)	Kd [1] [µM]	Binding stoichiometry of complex with CC2 ([1]; 1 μM BODIPY-Ant-CC2 titrated with CC2)	Reduction of NF-κB activation [2] [fold]	LPS-induced NF-κB activation in presence of peptide ([3]; 20 μM peptide 2 h, LPS (3 μg/ml) 5 h, 70Z3-C3 cells)	Reduction of NF-κB activity as compared with a control peptide ([3]; 20 μM peptide, B lymphocytes stimulated by LPS) [%]	IC50 ([3]; 70Z3-C3 cells, peptide 2 h, then LPS 5 h, β-galactosidase assay, read-out: IC50, 50% inhibition of LPS-induced NF-κB activation as compared to the control (no peptide)) [µM]	Affinity relative to wild-type NLM peptide, without accounting for cooperativity [4] [times]	Helix stability by circular dichroism [5]
Ac-C(BODIPYFLEthylmaleimide)RQIKIWFQNRRMKWKKSKGMQLEDLRQQLQQAEEALVAKQELIDKLKEEAEQHKIV-NH2 [BODIPY-Ant-CC2 (WT)]	linear dependancy	15.2	0.8	1.7	decreased significantly	70	22	–	–
LKAQADIYKARFQAERHAREK [NLM-DR]	–	–	–	–	–	–	–	75	helix more stable than the wild-type peptide

— patent US8790883B2, “Methods of identifying NF-κB inhibitors” (priority 2003, dated 2014)
